Measured values as given in patent US20070010664A1, “Gene expression in the central nervous system regulated by neuroleptic agents” (priority 2001, published 2007).

How the values were obtained:
[1] = test system: CLZ_43 (SEQ ID NO:37) mRNA; experiment: Real Time PCR validation of CLZ_43; conditions: clozapine 12 days; haloperidol 14 days; relative to untreated mice
[2] = test system: mRNAs (DSTs) expressed in striatum/nucleus accumbens; experiment: TOGA analysis of mRNA from striatum/nucleus accumbens of neuroleptic-treated mice (Table 1); conditions: haloperidol experiment in duplicate, average
[3] = test system: CLZ_44 (SEQ ID NO:38) mRNA; experiment: Northern blot analysis of CLZ_44 in striatum/nucleus accumbens; type: in vivo, mouse; conditions: 2 weeks of treatment; clozapine 7.5 mg/kg, haloperidol 4 mg/kg, ketanserin 4 mg/kg
Procedure: FIG. 39 is a graphical representation of a Northern Blot analysis of clone CLZ—44 (ACGG 352) (SEQ ID NO:38), where an agarose gel containing poly A enriched mRNA from the striatum/nucleus accumbens of clozapine-treated mice as well as size standards was blotted after electrophoresis and probed with radiolabelled CLZ—44.
In further characterization of CLZ—44, Northern blot analyses were performed to determine the pattern of expression in the striatum/nucleus accumbens after 2 weeks of treatment of control mice, clozapine-treated mice, haloperidol-treated mice, and ketanserin-treated mice (FIG. 39). Ketanserin is a 5HT2A/2C—selective antagonist, and is used to determine serotonorgic involvement in these drug effects. FIG. 39 is a graphical representation of the described northern blot analyses.

[4] = test system: CLZ_40 (SEQ ID NO:12) mRNA; experiment: Real Time PCR validation of CLZ_40; type: in vivo, mouse; conditions: mice chronically (2 weeks) treated
From the text: Validation of the DST expression for select DSTs was done by Real Time PCR using the ABI PRISM 7700 Sequence Detection System (PE Biosystems) that combines PCR, cycle-by-cycle fluorescence detection and analysis software for high-throughput quantitation of nucleic acid sequences. […] Standards for normalizing the quantitation of gene levels were chosen from a panel of 5 mouse “housekeeping” genes.

[5] = test system: mouse sequence homolog to human KIAA1451 (SEQ ID NO:79); experiment: Real Time PCR of mouse sequence homolog to human KIAA1451; conditions: mice chronically treated
CLZ_5 (apoD) mRNA = experiment: Real Time PCR validation of CLZ_5 (apoD); type: in vivo, mouse; conditions: clozapine or haloperidol treated mice
apoD mRNA [6] = experiment: In situ hybridization analysis of apoD (CLZ_5) in mouse brain; type: in vivo; conditions: clozapine 7.5 mg/kg five days and two weeks: striatum, cortex, globus pallidus, thalamus, white matter tracts; haloperidol: gray or white matter regions
Procedure: In further characterization of CLZ—43, in situ hybridization analysis using an antisense cRNA probe directed against the 3′ end of CLZ—43 were performed to show the pattern of CLZ—43 mRNA expression (FIG. 4A-F). In situ hybridization was performed on free-floating coronal sections (25 μM thick) with an ^35S-labeled, single-stranded antisense cRNA probe of CLZ—43. Coronal sections were hybridized at 55° C for 16 hour with an ^35S-labeled, single-stranded antisense cRNA probe of CLZ—43 at 10^7 cpm/ml. The probe was synthesized from the 3′-ended cDNA TOGA™ clone using the Maxiscript Transcription Kit (Ambion, Austin, Tex.). Excess probe was removed by washing with 2×SSC (I×SSC=[…]) containing 14 mM β-mercaptoethanol (30 minutes), followed by incubation with 4 μg/ml ribonuclease in 0.5 M NaCl/0.05 M EDTA/0.05 M Tris-HCl, pH 7.5, for 1 hour at 37° C. High stringency washes were carried out at 55° C. for 2 hours in 0.5×SSC/50% formamide/0.01 M β-mercaptoethanol, and then at 68° C. for 1 hour in 0.1×SSC/0.01 M β-mercaptoethanol/0.5% sarkosyl. […]
To investigate additional sites of apoD induction, in situ hybridization analysis was performed on brains from saline- and clozapine-treated mice. […] Increases in apoD expression were also detected in white matter tracts, predominantly the corpus callosum (cc), anterior commissure, internal capsule (ic) and optic tract (opt). […]

[7] = test system: CLZ_40 (TTGT 266) mRNA in striatum and amygdala; experiment: TOGA analysis of mRNA from brain of morphine-treated mice; type: in vivo, mouse
Procedure: For the morphine studies, male C57B1/6J mice (20-28 g) were housed as previously described in Example 1 and divided into the following groups: 1) a control group, in which the mice were subcutaneusly implanted with one placebo pellet upon halothane anaesthesia; 2) an acute morphine group, in which the mice received a morphine intraperitoneal injection of 10 mg/kg; 3) a chronic or tolerant group, in which mice were rendered drug-tolerant and dependent by means of subcutaneous implantation of a single pellet containing 75 mg of morphine free base for 3 days; and 4) a withdrawal group, in which the mice rendered tolerant to morphine were injected intraperitoneally with naltrexone 1 mg/kg. […] Their brains were rapidly removed. The striatum, including the nucleus accumbens, and block of tissues containing the amygdala complex were dissected under microscope and collected in ice-cold RNA extraction buffer.

apoD mRNA [8] = experiment: apoD mRNA expression in mouse brain after 5HT2 antagonists (preliminary results); type: in vivo

For O=C(CCCN1CCC(O)(c2ccc(Cl)cc2)CC1)c1ccc(F)cc1 [haloperidol], which “CLZ_43 expression, TOGA and Real Time PCR” value [1] is on record?
Its value is “not significantly responsive”.

And the “CLZ_43 TOGA profile for the haloperidol response” value [2]?
Its value is 1.08 fold.

And the “CLZ_44 expression, Northern” value [3]?
The value was “up-regulated”.

What about the “decrease in expression of CLZ_40, Real Time PCR” value [4] of the same compound?
The value was 0.66 fold.

What about the “increase in expression of mouse homolog to human KIAA1451, Real Time PCR” value [5] of the same compound?
Its value is 2.57 fold.

And the “increase in expression of CLZ_5 (apoD), Real Time PCR” value (CLZ_5 (apoD) mRNA)?
The value was 1.75 fold.

What about the “apoD mRNA, in situ hybridization” value (apoD mRNA [6]) of the same compound?
The value was “did not reveal substantial increases”.

CN1CC[C@]23c4c5ccc(O)c4O[C@H]2[C@@H](O)C=C[C@H]3[C@H]1C5 [morphine] was tested. Which “CLZ_40 expression in striatum, TOGA” value ([7]; acute morphine 10 mg/kg i.p., withdrawal (naltrexone 1 mg/kg in morphine-tolerant mice)) did it give?
Its value is “downregulated in withdrawal striatum but not acutely treated striatum”.

What about the “CLZ_40 expression in amygdala, TOGA” value ([7]; acutely treated (morphine 10 mg/kg i.p., 4 hours)) of the same compound?
The value was “slightly upregulated”.

And the “CLZ_40 expression in amygdala, TOGA” value ([7]; chronically treated (75 mg pellet, 3 days) and withdrawal)?
The value was “increasingly upregulated”.

Which results are given for CN1CCN(C2=Nc3cc(Cl)ccc3Nc3ccccc32)CC1 [clozapine]?
decrease in expression of CLZ_40, Real Time PCR [4]: 0.37 fold; increase in expression of mouse homolog to human KIAA1451, Real Time PCR [5]: 2.09 fold

Which results are given for O=C(c1ccc(F)cc1)C1CCN(CCn2c(=O)[nH]c3ccccc3c2=O)CC1 [ketanserin]?
CLZ_44 expression, Northern [3]: up-regulated; apoD mRNA expression in mouse brain (apoD mRNA [8]): apparent upregulation
